Where two headings read alike, the source gives them in different places. Each block holds one molecule with its values, some of them ahead of it.
Tests used:
human liver S9 fractions = experiment: In vitro glucuronidation by human hepatic S9 fractions; format: in vitro ADME; conditions: for Vmax: human S9 0.5 mg/mL
Method: (§1) To study the production of glucuronide metabolites in vitro, human and rat S9 hepatic fractions were used. To ensure that the formation rates of metabolites were linear over the incubation time and at the concentration of protein, a series of preliminary experiments was performed to optimize the reactions.
(§2) Glucuronidation was studied by incubation of human or rat liver S9 fractions (0.5 mg/mL) with ORV or GN at different concentrations (0–3000 μM) in Tris–HCl buffer (50 mM, pH 7.4) in the presence of UDPGA (1 mM), alamethicin (25 μg/mL), and MgCl2 (5 mM). All samples were prepared in Eppendorf tubes in a final volume of 100 μL. After 15 min at 37 °C, 100 μL of methanol (100%) was incorporated to stop the reaction and precipitate the proteins. Finally, samples were centrifuged for 30 min at 14000g and 4 °C, and the supernatants were analyzed by UPLC–DAD–MS. Analysis were carried out using 1290 Infinity UPLC (Agilent Technologies, Courtaboeuf, France). The UPLC system was coupled to an Esquire 3000 Plus ion trap mass spectrometer using an ESI source (Bruker-Daltonics, Billerica, MA, U.S.A.). A total of 2 μL was injected into an Agilent SB-C18 column (1.8 μm, 2.1 × 100 mm). Samples were eluted with solvent A (H2O/0.1% formic acid) and solvent B (acetonitrile/0.1% formic acid) with the following gradient program: 10% B (from 0 to 1.7 min), 10–20% B (from 1.7 to 3.4 min), 20–30% B (from 3.4 to 5.1 min), 30% B (from 5.1 to 7.8 min), 30–35% B (from 7.8 to 9.5 min), 35–60% B (from 9.5 to 11.9 min), 60–100% B (from 11.9 to 15.3 min), 100% B (from 15.3 to 17 min), and 100–10% B (from 17 to 17.3 min). The flow rate was set at 0.4 mL/min, and the UV detector was set at wavelengths of 280 and 320 nm. Total ion chromatograms were obtained using negative mode with a range of m/z 130–1400. The parameters were as follows: capillary voltage, +4 kV; nebulizer pressure, 40 psi; dry gas, 10 L/min; and dry temperature, 365 °C. Data analysis was performed with Bruker Data Analysis 3.2 (Bruker-Daltonics, Billerica, MA, U.S.A.). Metabolite concentrations were quantified with the corresponding standard curve of ORV and GN glucuronides previously obtained by hemisynthesis.
(§3) The kinetic parameters, Km, Vmax, and Ki, were calculated using the GraphPad Prism software (version 6.01) (substrate inhibition as the kinetic model). The data obtained from MTT, NO, ROS, IL-1β, and TNF-α production were subjected to one-way analysis of variance (ANOVA). A comparison between LPS and the different tested concentrations of ORV, GN, and their glucuronide metabolites was performed using Dunnet’s test, and p < 0.05 was considered significant (GraphPad Prism software, version 6.01).
(§4) An important objective of this work was to study the in vitro metabolization of t-ORV and t-GN in rat and human species using S9 hepatic fractions. To this end, both stilbene monomers were incubated (37 °C, 15 min) at different concentrations (0–3000 μM) with human and rat S9 fractions (0.5 mg/mL) in the presence of UDPGA as a co-substrate of phase II enzymes. Then, samples were injected into a HPLC–DAD–MS system to identify and quantify the in vitro generated metabolites.

rat liver S9 fractions = experiment: In vitro glucuronidation by rat hepatic S9 fractions; format: in vitro ADME; conditions: for Vmax: rat S9 0.5 mg/mL
Method: as §1, §2, §3, §4

macrophages = test system: macrophages; design: method as in PMID 24257684; conditions: macrophages ref 37; cited from earlier work
macrophage cell line = conditions: 100 μM, 18 h incubation ref 6; cited from earlier work
RAW 264.7 cells [1] = experiment: MTT cell viability; format: cell-based, murine; conditions: 24 h, 5–200 μM tested
Method: (§5) RAW 264.7 cells were cultured in DMEM containing 10% FBS and maintained in a humidified incubator set at 37 °C with 5% CO2. For all following assays, cells were subcultured at a density of 40 000 cells per well in 96 well culture plates with 200 μL of the above-described culture medium. After 24 h, cells were incubated with ORV, GN, and their glucuronide metabolites (5–200 μM) in RPMI medium supplemented with glutamine (4 mM) in the presence or absence of LPS (0.1 μg/mL) (200 μL final volume per well). For MTT, NO, ROS, IL-1β, and TNF-α (n = 4), each experiment was performed in triplicate separately.
The MTT colorimetric assay was performed to assess the cell viability of cells after being treated with ORV, GN, and their glucuronide metabolites. After 24 h of treatment, RAW 264.7 cells were incubated with 0.5 mg/mL MTT during 3 h at 37 °C. The formazan crystals formed were dissolved with 100 μL of dimethyl sulfoxide (DMSO), and the plate was then incubated in the darkness for 30 min. Finally, the absorbance was measured at 595 nm using a microplate reader (FLUOstar Optima, BMG Labtech).

HMC3 cells = test system: HMC3 cells; design: method as in PMID 32842681; conditions: HMC3 cells ref 8; cited from earlier work
[2] = test system: TNF-α production in LPS-stimulated RAW 264.7 cells; experiment: TNF-α production (ELISA) in LPS-stimulated macrophages; format: cell-based, murine; conditions: 24 h
Method: as §5
At 24 h after seeding, RAW 264.7 cells were exposed to LPS (0.1 μg/mL) in the absence or presence of ORV, GN (10 and 50 μM), and their metabolites (50 and 200 μM). After 24 h of exposure, IL-1β and TNF-α concentrations were measured in culture media supernatants by ELISA sandwich assay following the instructions of the manufacturer.

[3] = test system: ROS production in LPS-stimulated RAW 264.7 cells; experiment: Intracellular ROS measurement (DCFH2-DA) in LPS-stimulated macrophages; format: cell-based, murine
Method: as §5
Generation of intracellular ROS in cells was analyzed using the fluorometric probe DCFH2-DA. After 24 h of treatment with GN, ORV, and their glucuronide metabolites, cells were washed with phosphate-buffered saline (PBS) and then 150 μL of DCFH2-DA (10 μM) was added. After 30 min at 37 °C, the fluorescence intensity was quantified using a microplate reader (FLUOstar Optima, BMG Labtech) with a wavelength of excitation and emission of 485 and 520 nm, respectively. All experiments were performed in darkness. Results were expressed as ROS production (fluorescence intensity expressed as arbitrary units) compared to cells treated only with LPS (positive control).

[4] = cited from earlier work
RAW 264.7 cells [5] = conditions: cited from earlier work
[6] = test system: NO production in LPS-stimulated RAW 264.7 cells; experiment: NO measurement (Griess) in LPS-stimulated macrophages; format: cell-based, murine; conditions: for reduction of NO production: 50 μM, versus LPS alone
Method: as §5
After 24 h of treatment of RAW 264.7 cells with ORV, GN, and their glucuronide metabolites, 70 μL of supernatant was mixed with 70 μL of Griess solution. After 15 min in darkness, the absorbance was measured at 550 nm using a microplate reader (FLUOstar Optima, BMG Labtech). A calibration curve of NO2 (0–100 μM) was used for quantification. Data were expressed as NO production (μM) compared to cells treated only with LPS (positive control).

[7] = in vivo, 400 umol/kg; cited from earlier work
[8] = formation of the glucuronide from ORV
[9] = incubation of parent ORV or GN with human S9, UPLC–DAD–MS
[10] = formation of the glucuronide from GN
[11] = between 25 and 50 μM (summary statement)

Structure (SMILES): O=C(O)[C@H]1O[C@@H](Oc2cc(O)ccc2/C=C\c2cc(O)cc(O)c2)[C@H](O)[C@@H](O)[C@@H]1O (relative stereo) [c-ORV-2′G, cis-oxyresveratrol-2′-O-glucuronide]
metabolite formed/detected in samples (human liver S9 fractions): very low
metabolite formed/detected in samples (rat liver S9 fractions): very low

Structure (SMILES): O=C(O)[C@H]1O[C@@H](Oc2cc(O)cc(/C=C\c3ccc(O)cc3O)c2)[C@H](O)[C@@H](O)[C@@H]1O (relative stereo) [c-ORV-3G, cis-oxyresveratrol-3-O-glucuronide]
Vmax/Km (human liver S9 fractions): 0.159 ± 0.066 μL min^–1 mg^–1 of protein
Vmax (human liver S9 fractions; [8]): 13.01 ± 1.04 nmol min^–1 mg^–1 of protein
Vmax/Km (rat liver S9 fractions): 0.073 ± 0.044 μL min^–1 mg^–1 of protein
Vmax (rat liver S9 fractions; [8]): 31.34 ± 5.6 nmol min^–1 mg^–1 of protein

Structure (SMILES): O=C(O)C1OC(Oc2ccc(C=Cc3cc(O)cc(O)c3)c(O)c2)C(O)C(O)C1O (stereo not shown) [ORV-4′G]
metabolite formed/detected in samples (human liver S9 fractions; [9]): neither the trans nor the cis form of ORV-4′G was detected
metabolite formed/detected in samples (rat liver S9 fractions; incubation of parent ORV or GN with rat S9, UPLC–DAD–MS): neither the trans nor the cis form of ORV-4′G was detected

Structure (SMILES): O=C(O)[C@H]1O[C@@H](Oc2cc(O)cc(/C=C/c3ccc(O)cc3)c2)[C@H](O)[C@@H](O)[C@@H]1O [resveratrol-3-O-glucuronide]
cytotoxic effect (macrophages): neither resveratrol-3-O-glucuronide nor resveratrol-4′-O-glucuronide had any cytotoxic effect

Structure (SMILES): O=C(O)[C@H]1O[C@@H](Oc2ccc(/C=C/c3cc(O)cc(O)c3)cc2)[C@H](O)[C@@H](O)[C@@H]1O [resveratrol-4′-O-glucuronide]
cytotoxic effect (macrophages): neither resveratrol-3-O-glucuronide nor resveratrol-4′-O-glucuronide had any cytotoxic effect

Structure (SMILES): O=C(O)[C@H]1O[C@@H](Oc2cccc(O)c2/C=C/c2cc(O)cc(O)c2)[C@H](O)[C@@H](O)[C@@H]1O [t-GN-2′G, trans-gnetol-2′-O-glucuronide]
Vmax (human liver S9 fractions; [10]): 2.48 ± 0.31 nmol min^–1 mg^–1 of protein
Vmax (rat liver S9 fractions; [10]): 6.88 ± 0.86 nmol min^–1 mg^–1 of protein

metabolite formed/detected in samples (human liver S9 fractions; [9]): very low quantities
Structure (SMILES): O=C(O)[C@H]1O[C@@H](Oc2cc(O)cc(/C=C/c3c(O)cccc3O)c2)[C@H](O)[C@@H](O)[C@@H]1O [t-GN-3G, trans-gnetol-3-O-glucuronide]

Structure (SMILES): Oc1cc(O)cc(/C=C/c2ccc(O)cc2O)c1 [t-ORV, trans-2′,3,4′,5-tetrahydroxystilbene]
cytotoxic effect (macrophage cell line): did not observe any cytotoxic effect
concentration from which toxic (MTT) (RAW 264.7 cells [1]): ≥ 100 µM
concentration from which toxic (HMC3 cells): ≥ 80 µM
reduction of TNF-α ([2]; 50 μM): 30%
reduction of ROS ([3]; 50 μM, 24 h, LPS 0.1 μg/mL): more than 70%
decrease of ROS production [3, 11]: more than 50%
ability to metabolize ORV into glucuronides, rats versus humans (sum of Vmax/Km) (rat liver S9 fractions; rat, human, pH 7.4): > 2 fold
AUC0–t ([4]; rat, in vivo, po): 5133 μg h L^–1
concentration in plasma ([4]; rats, oral administration of ORV 100 mg/kg ref 19): ~10 µM
IC30 for cell cytotoxicity (RAW 264.7 cells [5]): higher than 50 μM
reduction of NO production ([6]; 24 h, LPS 0.1 μg/mL): 27.1%
concentration from which NO production significantly reduced ([6]; 24 h, LPS 0.1 μg/mL): ≥ 10 µM
decrease of NO production [6, 11]: more than 50%
total bioavailability [7]: 9.1-15.2%

Structure (SMILES): O=C(O)[C@H]1O[C@@H](Oc2cc(O)ccc2/C=C/c2cc(O)cc(O)c2)[C@H](O)[C@@H](O)[C@@H]1O [t-ORV-2′G, trans-oxyresveratrol-2′-O-glucuronide]
Vmax (human liver S9 fractions; [8]): 12.93 ± 1.47 nmol min^–1 mg^–1 of protein
Vmax (rat liver S9 fractions; [8]): 2.67 ± 0.32 nmol min^–1 mg^–1 of protein
reduction of NO production ([6]; 24 h, LPS 0.1 μg/mL): 29%

Structure (SMILES): O=C(O)[C@H]1O[C@@H](Oc2cc(O)cc(/C=C/c3ccc(O)cc3O)c2)[C@H](O)[C@@H](O)[C@@H]1O [t-ORV-3G, trans-oxyresveratrol-3-O-glucuronide]
reduction of TNF-α ([2]; 200 μM): 70%
Vmax (human liver S9 fractions; [8]): 11.41 ± 2.32 nmol min^–1 mg^–1 of protein
reduction of ROS production, at the most ([3]; ORV metabolites, 50–200 μM tested, concentration not given, 24 h, LPS): more than 80%
Vmax (rat liver S9 fractions; [10]): 36 ± 3.57 nmol min^–1 mg^–1 of protein
Vmax (rat liver S9 fractions; [8]): 319.1 ± 69.77 nmol min^–1 mg^–1 of protein
reduction of NO production ([6]; 24 h, LPS 0.1 μg/mL): 31%

Structure (SMILES): O=C(O)[C@H]1O[C@@H](Oc2ccc(/C=C/c3cc(O)cc(O)c3)c(O)c2)[C@H](O)[C@@H](O)[C@@H]1O [t-ORV-4′G, trans-oxyresveratrol-4′-O-glucuronide]
reduction of NO production ([6]; 24 h, LPS 0.1 μg/mL): 27.2%

From paper PMC9585577, “Oxyresveratrol and Gnetol Glucuronide Metabolites: Chemical Production, Structural Identification, Metabolism by Human and Rat Liver Fractions, and In Vitro Anti-inflammatory Properties” (Journal of Agricultural and Food Chemistry, 2022)
